Legend:
TREK-1/AAK_T = TREK-1/AAK_T (Mus musculus, UniProt P97438); test: TEVC of C-terminal tail swap chimera TREK-1/AAK_T; assay type: cell-based; details: Xenopus oocytes
Excerpt: Given the importance of the C-terminal tail for the BL-1249 response and the fact that the C-terminal tails of K2P2.1(TREK-1) and K2P4.1(TRAAK) vary substantially (17.6% sequence similarity, 13.5% identity), we wondered if these differences could contribute to the different potencies observed in K2P2.1(TREK-1) and K2P4.1(TRAAK) BL-1249 responses. To test this possibility, we made chimeras that swapped the C-terminal tail between K2P2.1(TREK-1) and K2P4.1(TRAAK), TREK-1/AAK_T and TRAAK/EK_T. […] Despite this modest change, it is clear that the C-terminal tail alone is not sufficient to endow the K2P4.1(TRAAK) core with a K2P2.1(TREK-1)-like BL-1249 response. […]
(§1) Xenopus laevis oocytes were harvested in accordance with UCSF IACUC protocol AN129690 and digested in calcium-free ND-96 (96 mM NaCl, 2 mM KCl, 3.8 mM MgCl2) immediately following harvest, as previously described.[6],[10] […] Defolliculated stage V–VI oocytes were injected with 0.2–6.0 ng of mRNA in 50 nL, and currents were recorded 24–48 h after injection. mRNA was synthesized from plasmid DNA using mMessage mMachine Kit (T7 promoter, Ambion, Life Technologies) and purified using RNEasy Kit (Qiagen). […] Once stabilized basal currents were recorded, compounds were perfused at various concentrations in standard ND96 and currents were allowed to increase to stabilization before recording final current. […]

K2P5.1(TASK-2) = target: T1, K2P5.1(TASK-2) (Mus musculus, UniProt F6V9U5); test: TEVC of K2P5.1(TASK-2) in Xenopus oocytes; assay type: cell-based; details: concentrations up to the solubility limit (∼80 μM)
T1 construct: expressed in transfected cells; host or cells: Xenopus laevis oocytes (mRNA injection, pGEMHE/pMO)
Procedure: BL-1249 activates K2P2.1(TREK-1)[18],[40] and K2P10.1(TREK-2),[7] but its effects on other K2P channels have not been characterized. […] In order to test if the original 10 μM assay had missed BL-1249 effects in other K2P channels, we tested concentrations of BL-1249 up to the solubility limit (∼80 μM) against the other K2P subfamily representatives. […]
as §1, with “current. Fold activation upon compound application is expressed as I/I0 (0 mV), derived from the current at 0 mV in the presence of compound divided by the basal current at 0 mV in standard ND96 without compound. Data were analyzed and plotted using Graphpad Prism Version 5 (GraphPad Software, San Diego California USA, www.graphpad.com).” for “current.”

T1 sequence (F6V9U5 1-502): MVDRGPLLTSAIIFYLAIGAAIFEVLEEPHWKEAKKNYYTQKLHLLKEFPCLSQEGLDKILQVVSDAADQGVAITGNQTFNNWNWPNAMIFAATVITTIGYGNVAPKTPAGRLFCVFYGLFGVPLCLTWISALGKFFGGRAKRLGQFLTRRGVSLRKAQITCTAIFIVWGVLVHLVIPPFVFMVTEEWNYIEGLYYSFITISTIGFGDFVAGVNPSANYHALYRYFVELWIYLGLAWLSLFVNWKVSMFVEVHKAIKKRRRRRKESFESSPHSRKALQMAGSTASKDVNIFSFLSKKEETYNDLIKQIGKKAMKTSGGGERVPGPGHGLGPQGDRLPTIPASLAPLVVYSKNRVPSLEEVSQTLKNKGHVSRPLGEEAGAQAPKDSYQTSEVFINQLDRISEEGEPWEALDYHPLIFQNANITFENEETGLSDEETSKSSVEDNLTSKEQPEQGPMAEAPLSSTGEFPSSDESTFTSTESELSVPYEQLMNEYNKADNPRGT
TREK-1/AAK_T, sequence (P97438 1-292 isoform P97438-2 limits assumed): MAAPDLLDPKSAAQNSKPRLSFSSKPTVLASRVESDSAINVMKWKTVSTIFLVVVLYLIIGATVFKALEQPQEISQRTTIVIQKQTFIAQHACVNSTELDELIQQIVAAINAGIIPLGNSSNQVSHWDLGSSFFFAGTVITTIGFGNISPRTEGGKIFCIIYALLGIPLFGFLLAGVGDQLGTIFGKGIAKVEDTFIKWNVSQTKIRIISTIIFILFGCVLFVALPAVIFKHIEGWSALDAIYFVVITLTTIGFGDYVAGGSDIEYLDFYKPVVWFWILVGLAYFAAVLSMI

With `c1ccc(-c2nnn[nH]2)c(Nc2cccc3c2CCCC3)c1` [BL-1249, (5,6,7,8-tetrahydro-naphthalen-1-yl)-[2-(1H-tetrazol-5-yl)-phenyl]-amine] the EC50 (TREK-1/AAK_T) was 7.7 ± 0.6 µM and the “activation of K2P5.1(TASK-2)” value (K2P5.1(TASK-2)) was “failed to find evidence for activation”.

Source: paper PMC6302903, “Protein and Chemical Determinants of BL-1249 Action and Selectivity for K2P Channels” (ACS Chemical Neuroscience, 2018)
